The text below walks through data of patent US20220362386A1, “LIQUID COMPOSITIONS COMPRISING A LEVODOPA AMINO ACID CONJUGATE AND USES THEREOF” (NeuroDerm, Ltd., priority 2019, published 2022).

Where a name gives a salt, the structure may show the parent alone. Non-standard residues stand in square brackets, D forms with d. Residues, ends and D or L forms follow the SMILES beside them. Dopa = N[C@@H](Cc1ccc(O)c(O)c1)C(=O)O

The conditions of series [1]: 0 weeks.
Method: (§1) It is noted that the recovery % compared the amount of any given material as measured at t=28 h (or any other presented value) compared to the amount of that material, at measured at t=0.
Series [2] is described as follows: LD-Arg, LD-Lys and LD-Tyr formulations of Experimental Example 12, physical stability (Tables 35-41). In kind it is physicochemical. As to conditions: for Physical Stability: room temperature overnight. The protocol:
Formulations as described in the tables below were prepared by adding a CD solution and dissolving all ingredients together. The CD for the LD-Arg formulation was prepared as follows: WFI was added to a bottle, after which Tween® 80 and sodium bisulfite were added, stirred to dissolution, and heated to 60° C. CD was added, stirred for 1-2 minutes to achieve homogenization. Finally, L-Arginine was added, the bottle was flushed with nitrogen, tightly closed and stirred 15 min. Dissolution was verified and the preparation was allowed to cool to ambient temperature. The pH was measured, and the preparation was transferred to a measurement bottle, where the volume was completed to the predefined final volume by adding WFI. The preparation was then filtered through sterile 0.22 μm nylon filter, transferred to 20 ml vials, after which nitrogen was purged into the headspace and the vials were frozen at −20° C. until use.
The CD solution for the LD-Tyr and LD-Lys formulations was prepared as follows: WFI was added to a bottle. Tween® 80 and sodium bisulfite were added, stirred to dissolution and heated to 60° C. CD was added, and stirred for 1-2 minutes to achieve homogenization. NaOH was added, after which the bottle was washed with nitrogen, closed tightly and stirred for 15 minutes. Dissolution was verified and the preparation was allowed to cool to ambient temperature. The pH was measured, and preparation was transferred to a measurement bottle, in which the volume was completed to final predefined volume by adding WFI. The preparation was then filtered through a sterile 0.22 μm nylon filter, transferred to 20 ml vials, after which nitrogen was purged into headspace and the vials were frozen at −20° C. until use.

Series [3] is described as follows: Analytical stability of LD-Tyr/CD formulations by HPLC (Tables 42-45c). As to conditions: for % retention, t = 1 week / Analytical stability result (HPLC), t = 1 week / % retention, t = 2 weeks / Analytical stability result (HPLC), t = 2 weeks: NB 144-4 formulation; for Analytical stability result (HPLC), t = 1 week / Analytical stability result (HPLC), t = 2 weeks: in mg/mL (unit assumed).
Method: as §1

The subject of series [4] is Caco-2 cells. Nature of the series: In-vitro absorption, Caco-2 A-B permeability. Particulars: Caco-2 A-B; both with and without verapamil. Type of series: in vitro ADME, human. The protocol:
Conditions may be adjusted when necessary.
D denotes donor and R is receiver. […] V is the volume of the donor or receiver.
The test was performed with and without verapamil, which is a permeation inhibitor, and the results are presented in Tables 22 (without verapamil) and 34 (with verapamil).

[5] abbreviates: t = 12 days, LD-Tyr 37.0%, CD 0.75%, L-Arginine 6.00, NaOH 0, TRIS 13, pH 8.14.
The mark [6] stands for this setting: t = 14 days, LD-Tyr 44.0%, CD 0.75%, L-Arginine 25.70, NaOH 0, TRIS 0, pH 8.34.
Where [7] appears, read: t = 26 days, LD-Tyr 37.0%, CD 0.75%, L-Arginine 6.00, NaOH 0, TRIS 12.124, pH 8.12.
Setting [8] is: t = 26 days, LD-Tyr 44.0%, CD 0.75%, L-Arginine 6.76, NaOH 0, TRIS 13.726, pH 8.08.
Where [9] appears, read: NB 144-32 (F1), 37% LD-Tyr/0.5% CD.
Setting [10] is: NB 144-34 (F2), 44% LD-Tyr/0.5% CD.
Where [11] appears, read: NB 144-39 (F3), 30% LD-Tyr/0.5% CD.

With `N[C@@H](Cc1ccc(O)c(O)c1)C(=O)N[C@@H](Cc1ccc(O)cc1)C(=O)O` [LD-Tyr TFA salt, Levodopa Tyrosine TFA Salt] (H-[Dopa]-Tyr-OH), in series [1], the “Analytical stability result (HPLC), t = 0” value was determined as 327.05. Further, the “Physical Stability” value is given as “Precipitated” in series [2] (LD-Tyr 20%, Arg 0%, TRIS 8.8%, pH 7.94, molar ratio 1:1.20); “Stable” in series [2] (LD-Tyr 30%, Arg 4.5%, TRIS 9.72%, pH 8.00, molar ratio 1:1.20); “Stable” in series [2] (LD-Tyr 37%, Arg 5.8%, TRIS 11.7%, pH 8.12, molar ratio 1:1.32); “Stable” in series [2] (LD-Tyr 44%, Arg 6.8%, TRIS 13.8%, pH 8.02, molar ratio 1:1.20); “Stable” in series [2] (LD-Tyr 44%, Arg 7.33%, TRIS 14.9%, pH 8.08, molar ratio 1:1.30). The “Appearance, 25° C.” value is listed as “Stable” in series [2] (t = 1 days, LD-Tyr 44.0%, CD 0%, L-Arginine 21.4, NaOH 0.60, TRIS 0, pH 8.29); “Stable” in series [2] (t = 3 days, LD-Tyr 44.0%, CD 0.75%, L-Arginine 6.27, NaOH 0, TRIS 12.69, pH 8.02); “Stable” in series [2] (setting [5]); “Stable” in series [2] (t = 12 days, LD-Tyr 44.0%, CD 0.75%, L-Arginine 21.4, NaOH 0.60, TRIS 0, pH 8.29); “Stable” in series [2] (t = 14 days, LD-Tyr 44.0%, CD 0.75%, L-Arginine 8.00, NaOH 0, TRIS 15, pH 8.15); “Stable” in series [2] (setting [6]). Moreover, the “Appearance, 25° C.” value in series [2] (t = 24 days, LD-Tyr 44.0%, CD 0.75%, L-Arginine 21.86, NaOH 0.60, TRIS 0, pH 8.57) was “Stable”; in series [2] (setting [7]), “Stable”; in series [2] (setting [8]) it was “Stable”; in series [2] (t = 27 days, LD-Tyr 44.0%, CD 0.75%, L-Arginine 25.72, NaOH 0, TRIS 0, pH 8.43) it was “Stable”; in series [2] (t = 70 days, LD-Tyr 38.0%, CD 0%, L-Arginine 21.90, NaOH 0, TRIS 0, pH 8.43), “Stable”. Besides, the “Appearance, Refrigerated (2-8° C.)” value in series [2] (t = 1 days, LD-Tyr 44.0%, CD 0.75%, L-Arginine 6.27, NaOH 0, TRIS 12.69, pH 8.02) was “Stable”; in series [2] (t = 7 days, LD-Tyr 44.0%, CD 0.75%, L-Arginine 8.00, NaOH 0, TRIS 15, pH 8.15), “Stable”; in series [2] (setting [5]) it was “Stable”; in series [2] (setting [6]) it was “Stable”; in series [2] (setting [7]), “Stable”; in series [2] (setting [8]) it was “Stable”. Further, the “Appearance, Refrigerated (2-8° C.)” value was “precipitated” in series [2] (t = 44 days, LD-Tyr 30.0%, CD 0.75%, L-Arginine 7.00, NaOH 0, TRIS 10.5, pH 8.23); “Stable” in series [2] (t = 50 days, LD-Tyr 30.0%, CD 0.75%, L-Arginine 18.10, NaOH 0, TRIS 0, pH 8.36); “Stable” in series [2] (t = 56 days, LD-Tyr 44.0%, CD 0.75%, L-Arginine 21.86, NaOH 0.60, TRIS 0, pH 8.57); “Stable” in series [2] (t = 70 days, LD-Tyr 44.0%, CD 0.75%, L-Arginine 25.72, NaOH 0, TRIS 0, pH 8.43). Besides, the “% retention, t = 1 week” value in series [3] (Storage temp. 2-8° C.) is on record as 98.8%; in series [3] (Storage temp. 25° C.), 101.1%; in series [3] (Storage temp. 40° C.), 93.0%. Further, the “Analytical stability result (HPLC), t = 1 week” value in series [3] (Storage temp. 2-8° C.) stood at 323.22; in series [3] (Storage temp. 25° C.), 330.81; in series [3] (Storage temp. 40° C.), 304.24. Besides, the entries for the “% retention, t = 2 weeks” value in series [3] (Storage temp. 2-8° C.) and in series [3] (Storage temp. 25° C.) were 99.7% and 97.3%, respectively. For the same compound, the “Analytical stability result (HPLC), t = 2 weeks” value in series [3] (Storage temp. 2-8° C.) is given as 326.20; in series [3] (Storage temp. 25° C.), 318.15. In addition, the “Concentration (HPLC), t = 0” value in series [3] (setting [9]) is given as 364.15; in series [3] (setting [10]), 437.98; in series [3] (setting [11]), 295.42. Besides, the entries for the “Concentration (HPLC), t = 28 h at 32° C.” value in series [3] (setting [9]), in series [3] (setting [10]) and in series [3] (setting [11]) were 352.22, 424.09 and 291.94, respectively.

As to `N[C@@H](CSC[C@H](NC(=O)[C@@H](N)Cc1ccc(O)c(O)c1)C(=O)O)C(=O)O` (single isomer, unassigned; peak 2) [LD-LA2 TFA salt, Levodopa Lanthionine Peak 2 TFA Salt], the “mean permeability compared with the other compounds (in words)” value in series [4] is “highest mean permeability”.
